{"source": "paper PMC5438822", "about": "“Pharmacokinetics and safety of carfilzomib in patients with relapsed multiple myeloma and end-stage renal disease (ESRD): an open-label, single-arm, phase I study” (Cancer Chemotherapy and Pharmacology, 2017)", "key": {"[1]": {"tested_on": "patients with relapsed multiple myeloma", "test": "Safety: adverse events (NCI CTCAE v4.03), discontinuations, deaths", "type": "in vivo, human", "details": "for treatment discontinuation due to disease progression: as of data cutoff", "protocol": "(§1) Patients received IV carfilzomib (as a 30-min infusion) in 28-day cycles (Fig. 1). All received carfilzomib 20 mg/m^2 on days 1 and 2 of cycle 1 and escalated to 27 mg/m^2 on day 8, 9, 15, and 16 of cycle 1. If tolerated, carfilzomib dose was increased to 56 mg/m^2 starting on day 1 of cycle 2 and continued on the same schedule (day 1, 2, 8, 9, 15, and 16 of each cycle). Oral or IV dexamethasone 8 mg/day was given on the same days as carfilzomib during cycles 1 and 2 but was optional in cycles 3 and beyond. IV hydration was given immediately prior to and following carfilzomib dosing during cycle 1 and at the investigator’s discretion in cycle 2 and higher; hydration consisted of 250 to 500 mL IV normal saline or other appropriate IV fluid.\n(§2) Blood samples were collected for PK assessments for carfilzomib and its major metabolites (metabolites PR-389/M14, PR-413/M15, and PR-519/M16) (Fig. 1). Samples were collected at the following timepoints on cycle 1 day 16 (27 mg/m^2 dose) and cycle 2 day 1 (56 mg/m^2 dose) or on subsequent infusion days when the intended dose levels were administered: before infusion; 15 min after start of infusion; within 2 min before the end of infusion; and at 5, 15, and 30 min (±2 min for all timepoints ≤30 min), and 1, 2, and 4 h (±5 min for all timepoints >30 min) after the end of the infusion. Safety was assessed throughout the study and included the monitoring of AEs, clinical laboratory evaluations, electrocardiograms, and vital signs. Each evaluable patient’s response to treatment or progression over the course of the study was evaluated by the investigator according to the International Myeloma Working Group, International Uniform Response Criteria for Multiple Myeloma and European Group for Blood and Marrow Transplantation at day 1 of each cycle.\n(§3) Safety was assessed for patients who received ≥1 dose of carfilzomib. AEs were graded using the National Cancer Institute Common Terminology Criteria for Adverse Events version 4.03 and mapped to preferred term and system organ class using the Medical Dictionary for Regulatory Activities (MedDRA). ORR defined as the proportion of patients for whom the best overall response was stringent complete response, complete response, very good PR, or PR, along with the associated 95% exact binomial CI (Clopper–Pearson method) was determined. CBR, defined as the proportion of patients with the best overall response of MR or better, was likewise determined along with the 95% exact binomial CI."}, "[2]": {"details": "cited from earlier work", "source_text": "Carfilzomib, an epoxyketone proteasome inhibitor, is approved in the United States (US), Canada, Australia, European Union (EU), and other jurisdictions for the treatment of relapsed or refractory multiple myeloma. […] Following intravenous (IV) administration, carfilzomib is rapidly and extensively metabolized in patients with multiple myeloma or solid tumors. Similar to the metabolic profile in rats and monkeys, ..."}, "[3]": {"test": "Plasma pharmacokinetics of carfilzomib and its major metabolites after 30-min IV infusion, normal renal function vs ESRD", "type": "in vivo, human", "details": "for AUC0−inf Geo mean ratio (90% CI), ESRD vs normal renal function / AUC0−last Geo mean ratio (90% CI), ESRD vs normal renal function: ANOVA of ln-transformed data, ESRD test, normal reference", "protocol": "(§4) This was a phase I, multicenter (13 sites in US, Canada, and Australia), open-label, nonrandomized, comparative PK study of carfilzomib in patients with multiple myeloma and normal renal function or ESRD on hemodialysis (NCT01949532). The primary objective was to assess the influence of ESRD on AUC, from time 0 to the last concentration measured (AUC0−last) and from time 0 extrapolated to infinity (AUC0−inf) of carfilzomib 56 mg/m^2 at cycle 2 day 1 in patients with relapsed multiple myeloma. Secondary objectives were to compare between patient cohorts additional PK parameters of carfilzomib at cycle 2 day 1, including C max, time to maximum concentration (t max), clearance, terminal half-life (t 1/2), volume of distribution at steady state, and mean residence time; compare between patient cohorts PK parameters of carfilzomib 27 mg/m^2 at cycle 1 day 16; evaluate PK parameters for carfilzomib’s major metabolites (PR-389/M14, PR-413/M15, and PR-519/M16) to help characterize metabolism and elimination profile of carfilzomib; and evaluate the safety and tolerability of carfilzomib. Exploratory objectives included evaluation of ORR (defined as PR or better) and clinical benefit rate [CBR; defined as ORR + minimal response (MR)], and estimation of duration of response (DOR) and PFS.\nas §1, §2\nDescriptive statistics were provided for selected demographics, safety, and PK data, with all statistical summaries and analyses performed in SAS^Ⓡ version 9.1 or higher (SAS Institute Inc., Cary, NC). The primary PK analyses and other PK parameters were performed using the PK-evaluable population. Plasma PK parameters of carfilzomib and metabolites were computed in Phoenix WinNonlin^Ⓡ Enterprise version 5.2 or higher. To assess the effect of ESRD relative to normal renal function on PK parameters (AUC0−last and AUC0−inf), an analysis of variance (ANOVA) of the ln-transformed plasma PK parameters was performed, with renal impairment as a fixed effect. […]"}, "[4]": {"tested_on": "patients with relapsed multiple myeloma", "test": "Best overall response as determined by investigator (IMWG / EBMT criteria), DOR and PFS", "type": "in vivo, human", "details": "for Best overall response: Minimal response / Best overall response: Complete response / Best overall response: Not evaluable / Best overall response: Partial response / Best overall response: Progressive disease / Best overall response: Stable disease / Best overall response: Stringent complete response / Best overall response: Very good partial response / Clinical benefit rate (95% CI), minimal response or better / Overall response rate (95% CI), partial response or better: response-evaluable, carfilzomib 20/27/56 mg/m^2 IV; for Best overall response: Minimal response: EBMT criteria", "protocol": "as §4, §1, §2, §3"}, "[5]": {"tested_on": "relapsed multiple myeloma", "details": "carfilzomib 56 mg/m^2 infused for 30 min with or without dexamethasone, cited from earlier work", "protocol": "The 50% ORR in the overall population was similar to those previously reported in trials of carfilzomib 56 mg/m^2 infused for 30 min with or without dexamethasone for relapsed multiple myeloma (50% in a phase I trial and 55% in a phase II trial). Together, the results of this study support current recommendations for carfilzomib that no starting dose adjustment is warranted for patients with baseline renal impairment including those with ESRD [8, 20]."}, "[6]": {"details": "total efficacy-evaluable population"}}, "note": "Where two headings read alike, the source gives them in different places.", "data": [{"smiles": "CC(C)C[C@H](NC(=O)[C@H](CCc1ccccc1)NC(=O)CN1CCOCC1)C(=O)N[C@@H](Cc1ccccc1)C(=O)N[C@@H](CC(C)C)C(=O)[C@@]1(C)CO1", "note": "[carfilzomib]", "values": [{"measurement": "treatment discontinuation due to disease progression", "setting": "[1]; ESRD", "value": 36, "unit": "%"}, {"measurement": "patients with treatment-related AEs that led to study discontinuation", "setting": "[1]; in vivo", "value": "Four"}, {"measurement": "treatment discontinuation due to disease progression", "setting": "[1]; normal renal function", "value": 20, "unit": "%"}, {"measurement": "patients who died during the study", "setting": "[1]; total, none considered related to carfilzomib treatment", "value": "Five"}, {"measurement": "half-life", "setting": "[2]; IV administration at doses from 15 to 56 mg/m^2, patients", "value": "≤ 60", "unit": "min"}, {"measurement": "dose excreted via urinary metabolites", "setting": "[2]; within 24 h", "value": "approximately 25%"}, {"measurement": "urinary and fecal excretion of the parent compound", "setting": "[2]; within 24 h", "value": "0.3 % of the total dose"}, {"measurement": "AUC0−inf Geo mean ratio (90% CI), ESRD vs normal renal function", "setting": "[3]; 27 mg/m^2", "value": "138.09 (102.77–185.54) %"}, {"measurement": "AUC0−last Geo mean ratio (90% CI), ESRD vs normal renal function", "setting": "[3]; 27 mg/m^2", "value": "139.72 (112.41–173.66) %"}, {"measurement": "AUC0−inf Geo mean ratio (90% CI), ESRD vs normal renal function", "setting": "[3]; 56 mg/m^2, cycle 2 day 1", "value": "133.62 (70.93–251.73) %"}, {"measurement": "AUC0−last Geo mean ratio (90% CI), ESRD vs normal renal function", "setting": "[3]; 56 mg/m^2, cycle 2 day 1", "value": "132.75 (70.60–249.63) %"}, {"measurement": "change in mean AUC0−last and C max between 27 and 56 mg/m^2", "setting": "[3]; in vivo", "value": "dose-dependent increase"}, {"measurement": "concentration decline in the first 15 min following the end of the infusion", "setting": "[3]; in vivo", "value": "two orders of magnitude"}, {"measurement": "mean terminal t 1/2", "setting": "[3]; in vivo", "value": "24 to 72", "unit": "min"}, {"measurement": "time of peak concentrations after start of infusion", "setting": "[3]; in vivo, iv", "value": "approximately 0.5 h"}, {"measurement": "patients with a PFS of ≥6 months", "setting": "[4]; ESRD", "value": "4 of 10"}, {"measurement": "Best overall response: Minimal response", "setting": "[4]; ESRD, n = 10", "value": "0 (0.0) n (%)"}, {"measurement": "Best overall response: Complete response", "setting": "[4]; ESRD, n = 10", "value": "0 (0.0) n (%)"}, {"measurement": "Best overall response: Not evaluable", "setting": "[4]; ESRD, n = 10", "value": "0 (0.0) n (%)"}, {"measurement": "Best overall response: Partial response", "setting": "[4]; ESRD, n = 10", "value": "5 (50.0) n (%)"}, {"measurement": "Best overall response: Progressive disease", "setting": "[4]; ESRD, n = 10", "value": "2 (20.0) n (%)"}, {"measurement": "Best overall response: Stable disease", "setting": "[4]; ESRD, n = 10", "value": "2 (20.0) n (%)"}, {"measurement": "Best overall response: Stringent complete response", "setting": "[4]; ESRD, n = 10", "value": "0 (0.0) n (%)"}, {"measurement": "Best overall response: Very good partial response", "setting": "[4]; ESRD, n = 10", "value": "1 (10.0) n (%)"}, {"measurement": "Clinical benefit rate (95% CI), minimal response or better", "setting": "[4]; ESRD, n = 10", "value": "60.0 (26.2–87.8) %"}, {"measurement": "Overall response rate (95% CI), partial response or better", "setting": "[4]; ESRD, n = 10", "value": "60.0 (26.2–87.8) %"}, {"measurement": "patients with a PFS of ≥6 months", "setting": "[4]; normal renal function", "value": "6 of 14"}, {"measurement": "Best overall response: Minimal response", "setting": "[4]; normal renal function, n = 14", "value": "1 (7.1) n (%)"}, {"measurement": "Best overall response: Complete response", "setting": "[4]; normal renal function, n = 14", "value": "0 (0.0) n (%)"}, {"measurement": "Best overall response: Partial response", "setting": "[4]; normal renal function, n = 14", "value": "3 (21.4) n (%)"}, {"measurement": "Best overall response: Progressive disease", "setting": "[4]; normal renal function, n = 14", "value": "2 (14.3) n (%)"}, {"measurement": "Best overall response: Stable disease", "setting": "[4]; normal renal function, n = 14", "value": "3 (21.4) n (%)"}, {"measurement": "Best overall response: Stringent complete response", "setting": "[4]; normal renal function, n = 14", "value": "0 (0.0) n (%)"}, {"measurement": "Best overall response: Very good partial response", "setting": "[4]; normal renal function, n = 14", "value": "3 (21.4) n (%)"}, {"measurement": "Clinical benefit rate (95% CI), minimal response or better", "setting": "[4]; normal renal function, n = 14", "value": "50.0 (23.0–77.0) %"}, {"measurement": "Overall response rate (95% CI), partial response or better", "setting": "[4]; normal renal function, n = 14", "value": "42.9 (17.7–71.1) %"}, {"measurement": "patients with a PFS >12 months", "setting": "[4]; [6]", "value": 4, "unit": "patients"}, {"measurement": "patients with a PFS of ≥6 months", "setting": "[4]; [6]", "value": "Ten"}, {"measurement": "Best overall response: Minimal response", "setting": "[4]; total, n = 24", "value": "1 (4.2) n (%)"}, {"measurement": "Best overall response: Complete response", "setting": "[4]; total, n = 24", "value": "0 (0.0) n (%)"}, {"measurement": "Best overall response: Not evaluable", "setting": "[4]; total, n = 24", "value": "2 (8.3) n (%)"}, {"measurement": "Best overall response: Partial response", "setting": "[4]; total, n = 24", "value": "8 (33.3) n (%)"}, {"measurement": "Best overall response: Progressive disease", "setting": "[4]; total, n = 24", "value": "4 (16.7) n (%)"}, {"measurement": "Best overall response: Stable disease", "setting": "[4]; total, n = 24", "value": "5 (20.8) n (%)"}, {"measurement": "Best overall response: Stringent complete response", "setting": "[4]; total, n = 24", "value": "0 (0.0) n (%)"}, {"measurement": "Best overall response: Very good partial response", "setting": "[4]; total, n = 24", "value": "4 (16.7) n (%)"}, {"measurement": "Clinical benefit rate (95% CI), minimal response or better", "setting": "[4]; total, n = 24", "value": "54.2 (32.8–74.4) %"}, {"measurement": "Overall response rate (95% CI), partial response or better", "setting": "[4]; total, n = 24", "value": "50.0 (29.1–70.9) %"}, {"measurement": "ORR", "setting": "[5]; phase I trial", "value": 50, "unit": "%"}, {"measurement": "ORR", "setting": "[5]; phase II trial", "value": 55, "unit": "%"}]}]}
